Measurements from publication PMC5617771 (Bioorganic & medicinal chemistry, 2017).

Tests used:
HIV-1 protease = HIV-1 protease (Human immunodeficiency virus type 1 group M subtype B, UniProt P04585); assay: HIV-1 protease enzyme inhibition; assay type: biochemical
HIV-1 LAI = assay: Antiviral activity in MT-2 cells exposed to HIV-1 LAI; assay type: cell-based; details: for fold improvement in antiviral assay with respect to 3b: relative to 3b

COc1ccc(S(=O)(=O)N(CC(C)C)C[C@@H](O)[C@H](Cc2ccccc2)NC(=O)c2cccc(C(=O)N(C)Cc3csc(C)n3)c2)cc1 [Inhibitor 3d, N^1-((2S,3R)-3-hydroxy-4-((N-isobutyl-4-methoxyphenyl)sulfonamido)-1-phenylbutan-2-yl)-N^3-methyl-N^3-((2-methylthiazol-4-yl)methyl)isophthalamide]
fold enhanced protease inhibitory activity over 3c (HIV-1 protease; relative to 3c): 5 fold
fold improvement in antiviral assay with respect to 3b (HIV-1 LAI): over 20 fold

COc1ccc(S(=O)(=O)N(CC(C)C)C[C@@H](O)[C@H](Cc2ccccc2)NC(=O)c2cccc(C(=O)N3CCC[C@@H]3c3nc(C)cs3)c2)cc1 [Inhibitor 4b, N-((2S,3R)-3-hydroxy-4-((N-isobutyl-4-methoxyphenyl)sulfonamido)-1-phenylbutan-2-yl)-3-((R)-2-(4-methylthiazol-2-yl)pyrrolidine-1-carbonyl)benzamide]
fold improved potency over (S) counterpart 4a (HIV-1 protease; relative to 4a): over 100 fold

COc1ccc(S(=O)(=O)N(CC(C)C)C[C@@H](O)[C@H](Cc2ccccc2)NC(=O)c2cc(O)cc(C(=O)N(C)Cc3nc(C)oc3C)c2)cc1 [Inhibitor 3f, N^1-((2,5-dimethyloxazol-4-yl)methyl)-5-hydroxy-N^3-((2S,3R)-3-hydroxy-4-((N-isobutyl-4-methoxyphenyl)sulfonamido)-1-phenylbutan-2-yl)-N^1-methylisophthalamide]
fold protease inhibitory potency over methylamino analogue 3e (HIV-1 protease; relative to 3e): 10 fold

COc1ccc(S(=O)(=O)N(CC(C)C)C[C@@H](O)[C@H](Cc2ccccc2)NC(=O)c2cccc(C(=O)N(C)Cc3coc(C)n3)c2)cc1 [Inhibitor 3c, N^1-((2S,3R)-3-hydroxy-4-((N-isobutyl-4-methoxyphenyl)sulfonamido)-1-phenylbutan-2-yl)-N^3-methyl-N^3-((2-methyloxazol-4-yl)methyl)isophthalamide]
fold improvement in antiviral assay with respect to 3b (HIV-1 LAI): over 20 fold

COc1ccc(S(=O)(=O)N(CC(C)C)C[C@@H](O)[C@H](Cc2ccccc2)NC(=O)c2cccc(C(=O)N3CCC[C@@H]3c3nc(C)co3)c2)cc1 [Inhibitor 4h, N-((2S,3R)-3-hydroxy-4-((N-isobutyl-4-methoxyphenyl)sulfonamido)-1-phenylbutan-2-yl)-3-((R)-2-(4-methyloxazol-2-yl)pyrrolidine-1-carbonyl)benzamide]
fold improved antiviral profile with respect to 4g (HIV-1 LAI; relative to 4g): 10 fold
